Entries after “also recorded” stand apart in the source; their conditions may differ.
Assays:
1000 bp DNA / pUC19 DNA = assay: Hfq·DNA aggregation: pelleting and protease assays; assay type: biochemical; conditions: 3.5 µM Hfq hexamer, 15 nM 1000 bp DNA (pelleting) or 6 nM pUC19 (protease assay), 25 °C
Experimental: Figure 5. CTD and RNAs inhibit DNA binding to Hfq by obstructing the basic rim patch. (A, B) Agarose gel electrophoretic mobility shift assays of 0–3.3 μM hexamer Hfq102, Hfq102-R16A, Hfq65 or Hfq65-R16A binding to 6 nM linear pUC19 DNA ([…]) at 25°C, stained with SYBR Gold. Hfq65 forms large aggregates that fail to enter the gel (Figure 5—figure supplement 1). (C, D) Line densitometry of DNA migration in (A, B). Free pUC19 (no Hfq) is shown in light grey. Samples with increasing Hfq concentration are shown in darker shades of grey. (E, F) RNA competition. Complexes of 0.5 μM Hfq102 hexamer and 6 nM linear pUC19 (black) were challenged by 0–2 μM RNA or DNA competitor (darker shades of red). pUC19 control in the absence of Hfq is shown in light grey. Icons indicate the binding surface for each competitor. See Figure 5—figure supplement 2 for gel images. Figure 5—figure supplement 1. Hfq CTD prevents aggregation with DNA. (A) Protease assay. 3.5 µM Hfq hexamer incubated with 6 nM linear (L) plus relaxed circular (N) pUC19 DNA at 25°C, for 30 min, in 50 mM Tris-HCl pH 7.5 and 10 mM CaCl2. The samples were divided in two. […] Digestion of Hfq65 and Hfq65-R16A with Proteinase K liberates DNA from Hfq•DNA aggregates, allowing it to be detected (lanes 9 and 10). […] The small proportion of Hfq65·DNA complexes remaining in the supernatant were only detected in the gel after treatment with salt. […]

linear pUC19 DNA = assay: Hfq binding to linear pUC19 DNA, agarose gel mobility shift; conditions: 0–3.3 μM Hfq hexamer, 6 nM linear pUC19, 25 °C, 1.5% agarose
Experimental: Figure 5. CTD and RNAs inhibit DNA binding to Hfq by obstructing the basic rim patch. (A, B) Agarose gel electrophoretic mobility shift assays of 0–3.3 μM hexamer Hfq102, Hfq102-R16A, Hfq65 or Hfq65-R16A binding to 6 nM linear pUC19 DNA (2635 nts) at 25°C, stained with SYBR Gold. Hfq65 forms large aggregates that fail to enter the gel (Figure 5—figure supplement 1). (C, D) Line densitometry of DNA migration in (A, B). Free pUC19 (no Hfq) is shown in light grey. Samples with increasing Hfq concentration are shown in darker shades of grey. (E, F) RNA competition. Complexes of 0.5 μM Hfq102 hexamer and 6 nM linear pUC19 (black) were challenged by 0–2 μM RNA or DNA competitor (darker shades of red). pUC19 control in the absence of Hfq is shown in light grey. Icons indicate the binding surface for each competitor. See Figure 5—figure supplement 2 for gel images. Figure 5—figure supplement 1. Hfq CTD prevents aggregation with DNA. (A) Protease assay. 3.5 µM Hfq hexamer incubated with 6 nM linear (L) plus relaxed circular (N) pUC19 DNA at 25°C, for 30 min, in 50 mM Tris-HCl pH 7.5 and 10 mM CaCl2. The samples were divided in two. One set was diluted with a small amount of buffer and incubated at 25°C for an additional 2 hr. The second set was brought to 0.5% SDS, and 0.4 U Proteinase K (NEB) was added, followed by incubation at 50°C for an additional 2 hr. Loading dye was added to all samples just before they were loaded onto a native gel. […] Digestion of Hfq65 and Hfq65-R16A with Proteinase K liberates DNA from Hfq•DNA aggregates, allowing it to be detected (lanes 9 and 10). (B) Pelleting assay. 3.5 µM Hfq hexamer was incubated with 15 nM 1000 bp DNA (Thermo Scientific) at 25°C for 30 min in 50 mM Tris-HCl pH 7.5. Hfq·DNA aggregates were pelleted by centrifugation at 20,000 × g, 4°C, for 30 min. Supernatants were removed and split in two. The pellet and half the supernatant were brought to 1 M NaCl, and the Hfq·DNA aggregates were further disrupted by phenol-chloroform extraction, before all of the samples were loaded on an agarose gel. […] The small proportion of Hfq65·DNA complexes remaining in the supernatant were only detected in the gel after treatment with salt. […] Competition of Hfq-DNA interactions by small RNAs. EMSAs of 0.5 μM Hfq102 hexamer binding to 6 nM linearized pUC19 plasmid, that were competed with 0.1–2 μM RNAs or DNA at 30°C. Gels were run in a cold room. […]
Samples (10 µL) containing linear pUC19 (0.145 nmol bp), 0–3.333 µM Hfq hexamer, in 40 mM Tris-HCl pH 7.5, 0.14 mM EDTA, 35 mM NH4Cl, 3.7% (v/v) glycerol, 0.05% (w/v) bromophenol blue were incubated at 25°C for 30 min. […] The fluorescence intensity was measured on a line from the bottom edge of the well through the middle of the lane to visualize the migration of pUC19. […]

Row | Substance | Hfq·DNA aggregation (1000 bp DNA / pUC19 DNA) | binding to linear pUC19 DNA (gel mobility) (linear pUC19 DNA) | binding to linear pUC19 DNA (gel mobility) (linear pUC19 DNA; listed as R16A)
1 | Hfq65: truncated E. coli Hfq variant lacking the CTD | Nearly all of the Hfq65·DNA complexes were found in the pellet fraction; also recorded: form insoluble aggregates with DNA which do not enter the gel | At higher protein concentrations, the DNA formed aggregates that were too large to enter the gel | –
2 | Hfq65-R16A | more evenly distributed between pellet and supernatant fractions; also recorded: form insoluble aggregates with DNA which do not enter the gel | rescued the formation of insoluble aggregates; also recorded: complexes migrated more slowly than those formed by similar concentrations of Hfq102 | lowered the maximum gel retardation and increased the intensity of the ‘smear’
3 | Hfq102: full-length E. coli Hfq | – | The mobility of the DNA-Hfq complexes decreased with added Hfq102 | –
